This assay concerns the target Arachidonate 15-lipoxygenase (Oryctolagus cuniculus). The experiment in a line: Inhibitory activity against reticulocyte 15-lipoxygenase in rabbit was evaluated.
As a reminder, the IC50 is the point on the concentration scale where inhibition reaches its midpoint. High values mean weaker potency, low ones greater potency. In the case of `COc1ccc(CCc2ccc(NC(=O)c3ccccc3O)cc2)cc1OC` [N-{4-[2-(3,4-Dimethoxy-phenyl)-ethyl]-phenyl}-2-hydroxy-benzamide], the IC50 was over 25 µM.

`Cc1ccc(C(=O)N(C)c2ccc(CCc3ccc(O)c(O)c3)cc2)c(O)c1` [N-{4-[2-(3,4-Dihydroxy-phenyl)-ethyl]-phenyl}-2-hydroxy-4,N-dimethyl-benzamide] showed an IC50 of 5 µM.

`O=C(Nc1ccc(CCc2ccc(O)c(O)c2)cc1)c1cc(Br)ccc1O` [5-Bromo-N-{4-[2-(3,4-dihydroxy-phenyl)-ethyl]-phenyl}-2-hydroxy-benzamide] displayed an IC50 of 1.5 µM.

In the case of `O=C(Nc1ccc(CCc2ccc(O)c(O)c2)cc1)c1ccc(-c2ccccc2)cc1O` [3-Hydroxy-biphenyl-4-carboxylic acid {4-[2-(3,4-dihydroxy-phenyl)-ethyl]-phenyl}-amide], the IC50 is over 25 µM.

The compound `O=C(O)c1cccc(C(=O)Nc2ccc(CCc3ccc(O)c(O)c3)cc2)c1O` [N-{4-[2-(3,4-Dihydroxy-phenyl)-ethyl]-phenyl}-2-hydroxy-isophthalamic acid] registered an IC50 of over 25 µM.

The compound `O=C(Nc1ccc(CCc2ccc(O)c(O)c2)cc1)c1cccc(Cl)c1O` [3-Chloro-N-{4-[2-(3,4-dihydroxy-phenyl)-ethyl]-phenyl}-2-hydroxy-benzamide] gave an IC50 of 1.2 µM. This lies in the single-digit micromolar range.

`COc1cc(CCc2ccc(NC(=O)c3ccc(C)cc3O)cc2)ccc1O` [2-Hydroxy-N-{4-[2-(4-hydroxy-3-methoxy-phenyl)-ethyl]-phenyl}-4-methyl-benzamide] gave an IC50 of over 25 µM.

`O=C(Nc1ccc(CCc2ccc(O)c(O)c2)cc1)c1ccc(O)cc1O` [N-{4-[2-(3,4-Dihydroxy-phenyl)-ethyl]-phenyl}-2,4-dihydroxy-benzamide] showed an IC50 of 5 µM.
